Where “and” joins values, the source holds several entries; their conditions need not be identical. Equal values may be shown once. Numbered stars: 1 amine (or outer) side, 2 acyl side, 3 side chain; on linkers, the order of the positions; unused ones are H or OH. Bridge positions count the residues as written; N and C are the ends. Square brackets hold non-standard residues; d marks the D form. Peptide text beside a SMILES is read from it. I, II: the chains in the order shown. Actinocin(9to1) = Cc1c2oc3c(C)ccc(C(=O)[*:1])c3nc-2c(C(=O)[*:2])c(N)c1=O; NMeV = CN[C@H](C(=O)O)C(C)C; Sar = CNCC(=O)O
Key:
TNF-α = target: T1, TNF-α (Homo sapiens, UniProt P01375); test: Inhibition of TNF-α cytotoxicity in L929 fibroblast cells (MTS); format: cell-based, mouse; conditions: Assay 2, Actinomycin D only (no TNFα), sample replicates
T1 construct: purchased Sigma-Aldrich

SJSA-1 xenograft [1] = conditions: mouse, in vivo
SJSA-1 cells = test: MTT proliferation assay, SJSA-1; format: cell-based, human
SJSA-1 xenograft [2] = test: SJSA-1 Bone Osteosarcoma subcutaneous xenograft model
[3] = SBT-100 5.0 mg/kg BID 14 days IP, Doxorubicin 7.0 mg/kg days 1, 8 and 14 IP
[4] = study day 9 post implant, IP, SBT-100 5.0 mg/kg BIDx14 and/or Doxorubicin 7.0 mg/kg days 1, 8, 14
[5] = study day 13 post implant, IP, SBT-100 5.0 mg/kg BIDx14 and/or Doxorubicin 7.0 mg/kg days 1, 8, 14
[6] = study day 16 post implant, IP, SBT-100 5.0 mg/kg BIDx14 and/or Doxorubicin 7.0 mg/kg days 1, 8, 14
[7] = study day 20 post implant, IP, SBT-100 5.0 mg/kg BIDx14 and/or Doxorubicin 7.0 mg/kg days 1, 8, 14
[8] = study day 21 post implant, IP, SBT-100 5.0 mg/kg BIDx14 and/or Doxorubicin 7.0 mg/kg days 1, 8, 14
[9] = study day 23 post implant, IP, SBT-100 5.0 mg/kg BIDx14 and/or Doxorubicin 7.0 mg/kg days 1, 8, 14
[10] = study day 27 post implant, IP, SBT-100 5.0 mg/kg BIDx14 and/or Doxorubicin 7.0 mg/kg days 1, 8, 14

T1 sequence (P01375 77-233 limits assumed): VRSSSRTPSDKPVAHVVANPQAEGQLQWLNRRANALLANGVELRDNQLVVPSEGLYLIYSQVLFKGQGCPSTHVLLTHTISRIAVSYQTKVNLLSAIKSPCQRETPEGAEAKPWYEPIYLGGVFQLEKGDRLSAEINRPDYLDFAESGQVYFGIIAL

Cc1c2oc3c(C)ccc(C(=O)N[C@@H]4C(=O)N[C@H](C(C)C)C(=O)N5CCC[C@H]5C(=O)N(C)CC(=O)N(C)[C@@H](C(C)C)C(=O)O[C@@H]4C)c3nc-2c(C(=O)N[C@@H]2C(=O)N[C@H](C(C)C)C(=O)N3CCC[C@H]3C(=O)N(C)CC(=O)N(C)[C@@H](C(C)C)C(=O)O[C@@H]2C)c(N)c1=O [Actinomycin D] (I: T[dV]P[Sar][NMeV] / II: T[dV]P[Sar][NMeV]; ester I:1-I:C, II:1-II:C; linker I:N-II:N via Actinocin(9to1))
% Toxicity (TNF-α): 0%

COc1cccc2c1C(=O)c1c(O)c3c(c(O)c1C2=O)C[C@@](O)(C(=O)CO)C[C@@H]3O[C@H]1C[C@H](N)[C@H](O)[C@H](C)O1 [Doxorubicin, reference compound]
number surviving at the end of the study (SJSA-1 xenograft [1]; Hsd: Athymic Nude-Fox1nu, 14 days): 2 | Are the survival curves sig different? (SJSA-1 xenograft [1]): Yes | inhibition of SJSA-1 cells (SJSA-1 cells; 72 hours, SBT-100 at 50 and 100 μg/ml, Doxorubicin at all dose levels tested): significant dose-dependent inhibition | inhibition at 0.0313 µM (SJSA-1 cells; Homo sapiens, SJSA-1, 72 h): 28% | inhibition at 0.0625 µM (SJSA-1 cells; Homo sapiens, SJSA-1, 72 h): 29% | inhibition at 0.313 µM (SJSA-1 cells; Homo sapiens, SJSA-1, 72 h): 31% | inhibition at 0.5 µM (SJSA-1 cells; Homo sapiens, SJSA-1, 72 h): 36% | inhibition at 0.625 µM (SJSA-1 cells; Homo sapiens, SJSA-1, 72 h): 29% | inhibition at 1 µM (SJSA-1 cells; Homo sapiens, SJSA-1, 72 h): 49% | inhibition at 5 µM (SJSA-1 cells; Homo sapiens, SJSA-1, 72 h): 52% | inhibition at 10 µM (SJSA-1 cells; Homo sapiens, SJSA-1, 72 h): 45% | Mean Abs (±SD) (SJSA-1 cells; Table 72 (experiment 5a), Doxorubicin 0.0313 μM alone, 72 hours): 0.281 ± 0.031 | Mean Abs (±SD) (SJSA-1 cells; Table 72 (experiment 5a), Doxorubicin 0.0625 μM alone, 72 hours): 0.277 ± 0.035 | Mean Abs (±SD) (SJSA-1 cells; Table 72 (experiment 5a), Doxorubicin 0.5 μM alone, 72 hours): 0.248 ± 0.038 | Mean Abs (±SD) (SJSA-1 cells; Table 72 (experiment 5a), Doxorubicin 1 μM alone, 72 hours): 0.197 ± 0.012 | Mean Abs (±SD) (SJSA-1 cells; Table 73 (Experiment 2, 5b), Doxorubicin 0.313 μM alone, 72 hours): 0.519 ± 0.004 | Mean Abs (±SD) (SJSA-1 cells; Table 73 (Experiment 2, 5b), Doxorubicin 0.625 μM alone, 72 hours): 0.530 ± 0.024 | Mean Abs (±SD) (SJSA-1 cells; Table 73 (Experiment 2, 5b), Doxorubicin 5.00 μM alone, 72 hours): 0.358 ± 0.003 | Mean Abs (±SD) (SJSA-1 cells; Table 73 (Experiment 2, 5b), Doxorubicin 10.0 μM alone, 72 hours): 0.414 ± 0.007 | % T/C (SJSA-1 xenograft [2]; [3]): 17.91% | mean tumor growth inhibition at the end of the study (SJSA-1 xenograft [2]; [3]): 84.71% | mean tumor size (±S.E.) at termination (SJSA-1 xenograft [2]; [3]): 215.84±52.32 | mean tumor size (±SE) at the last day of dosing (SJSA-1 xenograft [2]; [3]): 118.18±11.13 | tumor doubling time (SJSA-1 xenograft [2]; control 8.22): 13.32 | % Inh Mean (SJSA-1 xenograft [2]; [4]): 58.36% | % Inh Med (SJSA-1 xenograft [2]; [4]): 32.94% | Mean Abs (tumor measurement) (SJSA-1 xenograft [2]; [4]): 16.52 mm^3 | Tumor Measurements, single animals (SJSA-1 xenograft [2]; [4]): 23.19 mm^3 and 14.32 mm^3 and 16.69 mm^3 and 0.00 mm^3 (2×) and 46.20 mm^3 | % Inh Mean (SJSA-1 xenograft [2]; [5]): 3.16% | % Inh Med (SJSA-1 xenograft [2]; [5]): −23.18% | % T/C (SJSA-1 xenograft [2]; [5]): 107.14% | Mean Abs (tumor measurement) (SJSA-1 xenograft [2]; [5]): 76.72 mm^3 | Median Abs (tumor measurement) (SJSA-1 xenograft [2]; [5]): 72.93 mm^3 | Tumor Measurements, single animals (SJSA-1 xenograft [2]; [5]): 48.43 mm^3 and 20.77 mm^3 and 132.27 mm^3 and 104.16 mm^3 and 25.81 mm^3 and 132.66 mm^3 and 72.93 mm^3 | % Inh Mean (SJSA-1 xenograft [2]; [6]): 55.02% | % Inh Med (SJSA-1 xenograft [2]; [6]): 55.11% | % T/C (SJSA-1 xenograft [2]; [6]): 51.96% | Mean Abs (tumor measurement) (SJSA-1 xenograft [2]; [6]): 78.09 mm^3 | Median Abs (tumor measurement) (SJSA-1 xenograft [2]; [6]): 73.50 mm^3 | Tumor Measurements, single animals (SJSA-1 xenograft [2]; [6]): 102.31 mm^3 and 37.33 mm^3 and 105.65 mm^3 and 118.75 mm^3 and 57.55 mm^3 and 51.55 mm^3 and 73.50 mm^3 | % Inh Mean (SJSA-1 xenograft [2]; [7]): 74.31% | % Inh Med (SJSA-1 xenograft [2]; [7]): 71.58% | % T/C (SJSA-1 xenograft [2]; [7]): 30.35% | Mean Abs (tumor measurement) (SJSA-1 xenograft [2]; [7]): 79.33 mm^3 | Median Abs (tumor measurement) (SJSA-1 xenograft [2]; [7]): 72.16 mm^3 | Tumor Measurements, single animals (SJSA-1 xenograft [2]; [7]): 61.44 mm^3 and 68.71 mm^3 and 114.42 mm^3 and 93.72 mm^3 and 75.00 mm^3 and 69.85 mm^3 and 72.16 mm^3 | % Inh Mean (SJSA-1 xenograft [2]; [8]): 70.41% | % Inh Med (SJSA-1 xenograft [2]; [8]): 61.77% | % T/C (SJSA-1 xenograft [2]; [8]): 36.16% | Mean Abs (tumor measurement) (SJSA-1 xenograft [2]; [8]): 118.18 mm^3 | Tumor Measurements, single animals (SJSA-1 xenograft [2]; [8]): 85.16 mm^3 and 115.50 mm^3 and 133.21 mm^3 and 119.94 mm^3 and 160.89 mm^3 and 94.40 mm^3 | % Inh Mean (SJSA-1 xenograft [2]; [9]): 72.79% | % Inh Med (SJSA-1 xenograft [2]; [9]): 71.86% | % T/C (SJSA-1 xenograft [2]; [9]): 30.43% | Mean Abs (tumor measurement) (SJSA-1 xenograft [2]; [9]): 141.94 mm^3 | Median Abs (tumor measurement) (SJSA-1 xenograft [2]; [9]): 129.81 mm^3 | Tumor Measurements, single animals (SJSA-1 xenograft [2]; [9]): 105.84 mm^3 and 142.33 mm^3 and 217.29 mm^3 and 151.94 mm^3 and 116.95 mm^3 and 117.30 mm^3 | % Inh Mean (SJSA-1 xenograft [2]; [10]): 84.71% | % Inh Med (SJSA-1 xenograft [2]; [10]): 81.05% | % T/C (SJSA-1 xenograft [2]; [10]): 17.91% | Mean Abs (tumor measurement) (SJSA-1 xenograft [2]; [10]): 215.84 mm^3 | Median Abs (tumor measurement) (SJSA-1 xenograft [2]; [10]): 215.84 mm^3 | Tumor Measurements, single animals (SJSA-1 xenograft [2]; [10]): 163.53 mm^3 and 268.16 mm^3
